Patent US8278337B2, “Substituted pyridines that are JNK inhibitors” (Merck Sharp & Dohme, priority 2006, dated 2012)
Several values for one entry are separate records, joined by “and”; a condition that tells them apart may be missing. Identical values can stand only once. Like-named read-outs stand apart in the source and are kept apart here.

Molecular target: JNK1 (Homo sapiens, UniProt P45983)
Assay: DELFIA kinase assay, JNK1
Type: biochemical
Description: Assay DELFIA (Dissociation Enhanced Lanthanide Fluorescence Immuno-Assay) Assay:
Before initiation of kinase reactions, compounds were pre-incubated with the enzyme for 10 minutes. Pre-incubation reactions contained 50 mM HEPES pH 7.3, 10 mM MgCl2, 1 mM DTT, 75 mM NaCl, 1 mM EDTA, 1 mM EGTA, 0.01% CHAPS, 2 nM JNK1, 6 ug/mL biotinylated GST-ATF2, 0.1 mg/ml BSA, 5% DMSO and 0-100 μM compound in a total volume of 40 μL. After a 10 minute room temperature pre-incubation, 10 μL of 35 μM ATP was added to start the reaction (final concentration of ATP=7 uM). Reactions were incubated at room temperature for 30 minutes. A small aliquot (10 uL) was taken and quenched by adding into 190 uL of DELFIA Assay buffer containing 100 mM EDTA. The amount of phosphate transferred to biotinylated GST-ATF2 was measured using the Dissociation Enhanced Lanthanide Fluorescence Immuno-assay (DELFIA) from Perkin Elmer according to manufacturers protocol. Briefly, biotinylated GST-ATF2 was captured on streptavidin coated plates for 1 hour, washed twice, then incubated for 1 hour with a 1:1000 dilution of rabbit-anti-phospho-ATF2 antibody and a 1:3500 dilution of Europium-labeled anti-rabbit secondary antibody. Free antibody was removed with six washes, Europium was dissociated from the antibody, and Europium fluorescence was measured using an excitation wavelength of 340 nm and an emission wavelength of 615 nm. JNK2 and JNK3 kinase reactions were carried out similarly, with the exception that the final concentration of ATP was 4 uM and 2 uM, respectively.

[1] = DELFIA, biotinylated GST-ATF2 substrate, 10 minute pre-incubation, final ATP 7 uM

JNK1, sequence (P45983 whole entry, species assumed): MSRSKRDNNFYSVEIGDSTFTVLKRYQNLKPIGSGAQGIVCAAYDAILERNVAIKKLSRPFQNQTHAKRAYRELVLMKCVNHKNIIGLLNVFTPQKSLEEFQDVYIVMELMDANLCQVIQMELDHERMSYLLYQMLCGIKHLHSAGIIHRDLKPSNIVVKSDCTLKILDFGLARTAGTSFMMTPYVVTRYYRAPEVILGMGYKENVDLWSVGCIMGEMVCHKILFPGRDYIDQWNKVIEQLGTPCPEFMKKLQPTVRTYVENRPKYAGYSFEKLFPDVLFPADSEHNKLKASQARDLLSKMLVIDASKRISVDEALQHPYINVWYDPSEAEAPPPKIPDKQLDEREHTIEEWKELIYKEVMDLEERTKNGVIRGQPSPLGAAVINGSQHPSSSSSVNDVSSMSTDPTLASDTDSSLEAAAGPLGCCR

SMILES	IC50 [1]	also measured
Nc1nc2ccc(CNC(=O)c3cccc(C(=O)NC[C@@H](O)c4ccccc4)n3)cc2s1 [Compound 24]	> 1000 nM	–
CSc1nccc(N2CCC(NC(=O)c3cccc(C(=O)NCc4ccc(S(C)(=O)=O)cc4)n3)CC2)n1 [Compound 274]	> 1000 nM	–
CC(C)CN(C)c1cccc(C(=O)NCc2ccc(S(C)(=O)=O)cc2)n1 [Compound 338]	> 1000 nM and 1030 to 10000 nM	–
Nc1nc2ccc(CNC(=O)c3cccc(C(=O)N4CCCC(CO)C4)n3)cc2s1 (centres unmarked) [Compound 37]	> 1000 nM	–
CC(C)NC(=O)c1cccc(C(=O)NCc2nccs2)n1 [Compound 104]	1030 to 10000 nM and > 1000 nM	–
CCOC(=O)N1CCC(NC(=O)c2cc(-c3cccs3)cc(C(=O)NCc3ccc(S(C)(=O)=O)cc3)n2)CC1 [Compound 414]	> 1000 nM and 1030 to 10000 nM	–
Nc1nc2ccc(CNC(=O)c3cccc(Cl)n3)cc2s1 [Compound 261]	> 1000 nM	–
CCOC(=O)N1CCC(NC(=O)c2cccc(NC(=O)Cc3ccc(S(C)(=O)=O)cc3)n2)CC1 [Compound 402]	> 1000 nM and 1030 to 10000 nM	–
CCOC(=O)Nc1cccc(C(=O)NC2CCN(C(=O)OCC)CC2)n1 [Compound 400]	> 1000 nM and 1030 to 10000 nM	–
Nc1nc2ccc(CNC(=O)c3cccc(C(=O)N4CCCCC4CO)n3)cc2s1 (centres unmarked) [Compound 36]	> 1000 nM	–
CCOC(=O)N1CCC(NC(=O)c2cccc(C(=O)NCc3ccc(C)c(F)c3)n2)CC1 [Compound 73]	> 1000 nM and 1030 to 10000 nM	–
CS(=O)(=O)c1ccc(CNC(=O)c2cccc(C(=O)NC3CCN(c4ccncc4)CC3)n2)cc1 [Compound 275]	1030 to 10000 nM and > 1000 nM	–
CS(=O)(=O)c1ccc(CNC(=O)c2cccc(C(=O)NC3CCN(S(C)(=O)=O)CC3)n2)cc1 [Compound 58]	> 1000 nM	–
CC(C)NC(=O)c1cccc(C(=O)Nc2ccc3nccnc3c2)n1 [Compound 91]	> 1000 nM and 1030 to 10000 nM	–
CS(=O)(=O)c1ccc(CNC(=O)c2cccc(-n3cc(-c4ccc(F)cc4)cn3)n2)cc1 [Compound 321]	> 1000 nM and 1030 to 10000 nM	–
Cc1ccnn1-c1cccc(C(=O)NCc2ccc(S(C)(=O)=O)cc2)n1 [Compound 325]	1030 to 10000 nM and > 1000 nM	–
Cc1ccn(-c2cccc(C(=O)NCc3ccc(S(C)(=O)=O)cc3)n2)n1 [Compound 324]	1030 to 10000 nM and > 1000 nM	–
CCOC(=O)N1CCC(NC(=O)c2cccc(Nc3ccccn3)n2)CC1 [Compound 396]	> 1000 nM	–
CC(C)CNC(=O)c1cccc(C(=O)NCc2ccc3nc(N)sc3c2)n1 [Compound 64]	> 1000 nM	–
Cc1nc2cc(CNC(=O)c3cccc(C(=O)NC(C)C)n3)ccc2[nH]1 [Compound 108]	102 to 959 nM	–
CNS(=O)(=O)c1ccc(-n2cc(CNC(=O)c3cccc(C(=O)NC(C)C)n3)cn2)cc1 [Compound 244]	4 to 19 nM and 4 to 97 nM	–
CN(C)C(=O)c1cccc(C(=O)NCc2ccc3nc(N)sc3c2)n1 [Compound 13]	> 1000 nM	–
CC(C)NC(=O)c1cccc(C(=O)NCc2ccc(S(C)(=O)=O)cc2)n1 [Compound 88]	102 to 959 nM	–
Cc1cc(C)n(-c2cccc(C(=O)NCc3ccc(S(C)(=O)=O)cc3)n2)n1 [Compound 320]	> 1000 nM and 1030 to 10000 nM	–

SMILES	IC50 [1]	also measured
CC(=O)N1CCC(NC(=O)c2cccc(C(=O)NCc3ccc4nc(N)sc4c3)n2)CC1 [Compound 28]	102 to 959 nM	–
Nc1nc2ccc(CNC(=O)c3cccc(C(=O)N[C@H](CO)c4ccccc4)n3)cc2s1 [Compound 51]	102 to 959 nM	–
CC(C)NC(=O)c1cccc(C(=O)NCc2cnn(-c3ccncc3)c2)n1 [Compound 159]	102 to 959 nM	–
CC(C)NC(=O)c1cccc(C(=O)NCc2cnn(-c3ccc4nc(-c5cccnc5)n(C)c4c3)c2)n1 [Compound 238]	4 to 97 nM and 4 to 19 nM	–
COc1ccc(CNC(=O)c2cccc(C(=O)NC(C)C)n2)cc1OC [Compound 111]	102 to 959 nM	–
CC(C)NC(=O)c1cccc(-n2cc(I)cn2)n1 [Compound 287]	> 1000 nM and 1030 to 10000 nM	–
CC(C)NC(=O)c1cccc(C(=O)NCc2ccc(N3CCOCC3)nc2)n1 [Compound 115]	102 to 959 nM	–
Cn1cc(-c2cccc(C(=O)NCc3ccc(S(C)(=O)=O)cc3)n2)cn1 [Compound 333]	> 1000 nM and 1030 to 10000 nM	–
Nc1nc2ccc(CNC(=O)c3cccc(C(=O)N[C@@H](CO)c4ccccc4)n3)cc2s1 [Compound 54]	> 1000 nM and 1030 to 10000 nM	–
COc1ccc(F)cc1-c1cccc(C(=O)NCc2ccc(S(C)(=O)=O)cc2)n1 [Compound 329]	102 to 959 nM	–
CS(=O)(=O)c1ccc(CNC(=O)c2cccc(-n3cccn3)n2)cc1 [Compound 314]	> 1000 nM	–
CC(C)NC(=O)c1cccc(C(=O)NCc2cnn(-c3ccc(S(=O)(=O)N(C)C)c(Cl)c3)c2)n1 [Compound 246]	4 to 19 nM and 4 nM and 4 to 97 nM	IC50 (DELFIA assay, 2 nM JNK1, 7 uM ATP, 10 min pre-incubation): 4 nM; IC50 (DELFIA assay, 2 nM JNK1, 7 uM ATP, 10 min pre-incubation, second table, read-out: JNK 1 IC50): 4 nM
CC(C)(C)c1nnc(-c2cccc(C(=O)NCc3ccc(S(C)(=O)=O)cc3)n2)o1 [Compound 303]	> 1000 nM and 1030 to 10000 nM	–
CC(=O)NCCNC(=O)c1cccc(C(=O)NCc2ccc3nc(N)sc3c2)n1 [Compound 16]	> 1000 nM	–
CC(C)NC(=O)c1cccc(C(=O)NCc2ccc(-n3cccn3)cc2)n1 [Compound 109]	102 to 959 nM	–
CS(=O)(=O)c1ccc(-n2cc(CNC(=O)c3cccc(-n4cc(-c5cccc(F)c5)cn4)n3)cn2)cc1 [Compound 295]	102 to 959 nM	–
COc1cccc(C(=O)NCc2ccc3nc(N)sc3c2)n1 [Compound 267]	> 1000 nM	–
CC(C)NC(=O)c1cccc(C(=O)NNc2ccc(S(C)(=O)=O)cc2)n1 [Compound 122]	> 1000 nM and 1030 to 10000 nM	–
CC(C)NC(=O)c1cccc(C(=O)NCc2ccc(S(N)(=O)=O)cc2)n1 [Compound 98]	102 to 959 nM	–
Nc1nc2ccc(CNC(=O)c3cccc(C(=O)NC[C@H](O)c4ccccc4)n3)cc2s1 [Compound 25]	102 to 959 nM	–
Nc1nc2ccc(CNC(=O)c3cccc(C(=O)NCCc4ccccc4)n3)cc2s1 [Compound 27]	> 1000 nM	–
CC(C)C(=O)N(C)c1cccc(C(=O)NCc2cnn(-c3cccc(C(F)(F)F)c3)c2)n1 [Compound 365]	> 1000 nM and 1030 to 10000 nM	–
CCOC(=O)c1cccc(C(=O)NCc2ccc3nc(N)sc3c2)n1 [Compound 62]	> 1000 nM	–

The next lines start with results.

IC50 [1]	SMILES	also measured
102 to 959 nM	CC(C)NC(=O)c1cccc(C(=O)NCc2nc3ccccc3[nH]2)n1 [Compound 106]	–
4 to 97 nM	Cc1cc(NC(=O)c2cccc(C(=O)NCc3cnn(-c4ccc(S(C)(=O)=O)cc4)c3)n2)no1 [Compound 78]	–
4 to 97 nM	CC(C)NC(=O)c1cccc(C(=O)NCc2ccc(-c3cccc(F)c3)nc2)n1 [Compound 175]	–
102 to 959 nM	CC(C)(C)c1nnc(-c2cccc(C(=O)NCc3cnn(-c4ccc(S(C)(=O)=O)cc4)c3)n2)o1 [Compound 302]	–
4 to 97 nM	CS(=O)(=O)c1ccc(-n2cc(CNC(=O)c3cccc(-n4cc(-c5ccccn5)cn4)n3)cn2)cc1 [Compound 297]	–
4 to 97 nM	CC(C)NC(=O)c1cccc(C(=O)NCc2cncc(-c3cccc(C#N)c3)c2)n1 [Compound 258]	–
102 to 959 nM	O=C(NCc1cccnc1)c1cccc(-n2cc(I)cn2)n1 [Compound 289]	–
102 to 959 nM	O=C(NCc1cnn(-c2ccccc2)c1)c1cccc(-n2cc(I)cn2)n1 [Compound 291]	–
4 to 97 nM	CC(C)NC(=O)c1cccc(C(=O)NCc2ccc(-c3cccc(S(C)(=O)=O)c3)cc2)n1 [Compound 193]	–
4 to 97 nM	CC(C)NC(=O)c1cccc(C(=O)NCc2cnn(-c3cccnc3)c2)n1 [Compound 141]	–
4 to 97 nM	N#Cc1ccccc1N1CCC(NC(=O)c2cccc(C(=O)NCc3ccc4nc(N)sc4c3)n2)CC1 [Compound 10]	–
102 to 959 nM	CS(=O)(=O)c1ccc(CNC(=O)c2cccc(C(=O)NC3CCN(c4ccccn4)CC3)n2)cc1 [Compound 273]	–
102 to 959 nM	CC(C)NC(=O)c1cccc(C(=O)NCc2ccn(-c3ccc(S(C)(=O)=O)cc3)n2)n1 [Compound 309]	–
4 to 97 nM	Cc1nc2cc(-n3cc(CNC(=O)c4cccc(C(=O)NC(C)C)n4)cn3)ccc2[nH]1 [Compound 146]	–
4 to 97 nM	CC(C)NC(=O)c1cccc(C(=O)NCc2nc3ccccc3s2)n1 [Compound 85]	–
102 to 959 nM	Nc1nc2ccc(CNC(=O)c3cccc(C(=O)NCCCn4ccnc4)n3)cc2s1 [Compound 69]	–
4 to 97 nM	CC(C)NC(=O)c1cccc(C(=O)NCc2cnn(-c3ccc4cncnc4c3)c2)n1 [Compound 216]	–
102 to 959 nM	CC(C)NC(=O)c1cccc(C(=O)NCc2ccc(-c3ccccn3)s2)n1 [Compound 118]	–
4 to 97 nM	CC(C)NC(=O)c1cccc(C(=O)NCc2cnn(-c3cc(Br)cc(C#N)c3)c2)n1 [Compound 155]	–
4 to 97 nM	Nc1nc2ccc(CNC(=O)c3cccc(C(=O)NC4CCC4)n3)cc2s1 [Compound 11]	–
4 to 97 nM	CC(C)NC(=O)c1cccc(C(=O)NCc2cnn(-c3ccc4[nH]cnc4c3)c2)n1 [Compound 148]	–
4 to 97 nM	CC(C)NC(=O)c1cccc(C(=O)NCc2ccc3nc(NCCN4CCOCC4)sc3c2)n1 [Compound 202]	–
4 to 97 nM	CC(C)NC(=O)c1cccc(C(=O)NCc2cnn(-c3ccc(F)c(Cl)c3)c2)n1 [Compound 131]	–
4 to 97 nM	CC(C)NC(=O)c1cccc(C(=O)NCc2cnn(-c3cncc(C#N)c3)c2)n1 [Compound 161]	–
4 to 97 nM	CS(=O)(=O)c1ccc(-n2cc(CNC(=O)c3cccc(C(=O)NC4CCCCC4)n3)cn2)cc1 [Compound 77]	–
